Values joined by “and” are separate entries in the source; they are usually repeats but may differ in a detail not shown here. Equal values may be shown once. Inconclusive results and toxic doses are left out.
Test system: L1210 leukemia ip in BDF1 mice, survival T/C
Test: NCI In Vivo Anticancer Drug Screen. Data for tumor model L1210 Leukemia (intraperitoneal) in B6D2F1 (BDF1) mice
Conditions: endpoint: mean survival time, higher = longer survival
How it was run: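 Value reflects the ratio of survival in compound-treated mice to survival in vehicle-treated controls, with both groups carrying the same transplanted tumor.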

[1] = dose: 100.0 mg/kg/injection, schedule: Q01DX005 (ip), vehicle: saline
[2] = dose: 200.0 mg/kg/injection, schedule: Q01DX005 (ip), vehicle: saline
[3] = dose: 50.0 mg/kg/injection, schedule: Q01DX009 (ip), vehicle: saline with Tween-80
[4] = dose: 100.0 mg/kg/injection, schedule: Q01DX009 (ip), vehicle: saline with Tween-80
[5] = dose: 100.0 mg/kg/injection, schedule: Q04DX002 (ip), vehicle: Klucel (hydroxypropylcellulose) (HPC)
[6] = dose: 200.0 mg/kg/injection, schedule: Q04DX002 (ip), vehicle: Klucel (hydroxypropylcellulose) (HPC)
[7] = dose: 400.0 mg/kg/injection, schedule: Q04DX002 (ip), vehicle: Klucel (hydroxypropylcellulose) (HPC)
[8] = dose: 200.0 mg/kg/injection, schedule: Q01DX009 (ip), vehicle: saline with Tween-80

CCOP(=O)(OCC)OCCSCC
T/C (dose: 75.0 mg/kg/injection, schedule: Q01DX001 (ip), vehicle: saline): 103 % of control | T/C (dose: 150.0 mg/kg/injection, schedule: Q01DX001 (ip), vehicle: saline): 102 % of control

Cc1cc([N+](=O)[O-])cc(Cl)n1
T/C (dose: 100.0 mg/kg/injection, schedule: Q01DX001 (ip), vehicle: Klucel (hydroxypropylcellulose) (HPC)): 97 % of control | T/C (dose: 200.0 mg/kg/injection, schedule: Q01DX001 (ip), vehicle: Klucel (hydroxypropylcellulose) (HPC)): 102 % of control | T/C (dose: 400.0 mg/kg/injection, schedule: Q01DX001 (ip), vehicle: Klucel (hydroxypropylcellulose) (HPC)): 100 % of control

COC(=N)c1nn(C2OC(CO)C(O)C2O)c2ncnc(N)c12 (stereo unspecified)
T/C [1]: 115 % of control | T/C [2]: 153 % of control | T/C (dose: 400.0 mg/kg/injection, schedule: Q01DX005 (ip), vehicle: saline): 164 % of control

O=C(CNC(=O)c1ccccc1)N/N=C/c1ccncc1
T/C (dose: 25.0 mg/kg/injection, schedule: Q01DX009 (ip), vehicle: saline with Tween-80): 91 % of control | T/C [3]: 93 % of control | T/C [4]: 86 % of control

O=C1c2ccccc2C(=O)c2c(Sc3ccccc3)cccc21
T/C (dose: 100.0 mg/kg/injection, schedule: Q04DX003 (ip), vehicle: saline with Tween-80): 96 % of control | T/C (dose: 200.0 mg/kg/injection, schedule: Q04DX003 (ip), vehicle: saline with Tween-80): 98 % of control | T/C (dose: 400.0 mg/kg/injection, schedule: Q04DX003 (ip), vehicle: saline with Tween-80): 95 % of control

CCOC(=O)c1cn(C2OC(COC(=O)c3ccccc3)C(OC(=O)c3ccccc3)C2OC(=O)c2ccccc2)c(=O)nc1Nc1ccccc1Cl (stereo unspecified)
T/C (dose: 25.0 mg/kg/injection, schedule: Q01DX005 (ip), vehicle: saline): 104 % of control | T/C (dose: 50.0 mg/kg/injection, schedule: Q01DX005 (ip), vehicle: saline): 105 % of control | T/C (dose: 75.0 mg/kg/injection, schedule: Q01DX005 (ip), vehicle: saline): 105 % of control | T/C [1]: 123 % of control | T/C [2]: 92 % of control

COC1OC(COC(=O)OCC(Cl)(Cl)Cl)C(OC(=O)OCC(Cl)(Cl)Cl)C(OC(=O)OCC(Cl)(Cl)Cl)C1OC(=O)OCC(Cl)(Cl)Cl (stereo unspecified)
T/C (dose: 75.0 mg/kg/injection, schedule: Q01DX001 (ip), vehicle: other): 90 % of control | T/C (dose: 150.0 mg/kg/injection, schedule: Q01DX001 (ip), vehicle: other): 92 % of control | T/C (dose: 300.0 mg/kg/injection, schedule: Q01DX001 (ip), vehicle: other): 90 % of control

CCNC(=O)OCC1C2CCC(O2)C1COC(=O)NCC (stereo unspecified)
T/C [5]: 101 % of control | T/C [6]: 98 % of control | T/C [7]: 98 % of control

COC(=O)COc1ccc(Cl)c2ccccc12
T/C (dose: 50.0 mg/kg/injection, schedule: Q04DX002 (ip), vehicle: Klucel (hydroxypropylcellulose) (HPC)): 89 % of control | T/C [5]: 96 % of control | T/C [6]: 99 % of control and 105 % of control | T/C [7]: 92 % of control

O=C(Nc1ccccc1)Nc1nccs1
T/C (dose: 100.0 mg/kg/injection, schedule: Q01DX001 (ip), vehicle: saline): 102 % of control | T/C (dose: 100.0 mg/kg/injection, schedule: Q04DX003 (ip), vehicle: Klucel (hydroxypropylcellulose) (HPC)): 105 % of control | T/C (dose: 200.0 mg/kg/injection, schedule: Q01DX001 (ip), vehicle: saline): 106 % of control | T/C (dose: 200.0 mg/kg/injection, schedule: Q04DX003 (ip), vehicle: Klucel (hydroxypropylcellulose) (HPC)): 100 % of control | T/C (dose: 400.0 mg/kg/injection, schedule: Q01DX001 (ip), vehicle: saline): 101 % of control

CCOC(=O)CC(C(=O)OCC)C(C(=O)OCC)C(=O)OCC (stereo unspecified)
T/C [3]: 111 % of control | T/C [4]: 101 % of control | T/C [8]: 101 % of control

COc1ccc(-c2sc(/N=C/c3cc(OC)c(OC)c(OC)c3)c(C#N)c2C)cc1OC
T/C [4]: 98 % of control and 103 % of control | T/C (dose: 100.0 mg/kg/injection, schedule: Q04DX002 (ip), vehicle: saline with Tween-80): 93 % of control and 88 % of control | T/C [8]: 100 % of control and 88 % of control | T/C (dose: 200.0 mg/kg/injection, schedule: Q04DX002 (ip), vehicle: saline with Tween-80): 93 % of control | T/C (dose: 400.0 mg/kg/injection, schedule: Q01DX009 (ip), vehicle: saline with Tween-80): 92 % of control and 87 % of control | T/C (dose: 400.0 mg/kg/injection, schedule: Q04DX002 (ip), vehicle: saline with Tween-80): 94 % of control and 104 % of control

O=C(CCC(=O)Oc1ccc(S(=O)(=O)F)cc1)Oc1ccc(S(=O)(=O)F)cc1
T/C (dose: 100.0 mg/kg/injection, schedule: Q04DX003 (ip), vehicle: saline): 92 % of control | T/C (dose: 200.0 mg/kg/injection, schedule: Q04DX003 (ip), vehicle: saline): 118 % of control | T/C (dose: 400.0 mg/kg/injection, schedule: Q04DX003 (ip), vehicle: saline): 103 % of control

From PubChem BioAssay AID248 (DTP/NCI, 2004)
